Measurements reported in patent US4720493A, “Thienylthiazole compounds” (Yoshitomi Pharmaceutical Industries, Ltd., priority 1984, dated 1988).
Structures can show the parent of a compound that is named as a salt.

What was measured:
[1] = tested on: hypoxia; experiment: Effect on hypoxia (survival time); format: in vivo, female dd-strain mice; details: 30 mg/kg p.o., 30 min before hypoxia 200 mmHg, mice
Description: According to the method of Nakanishi et al described in Life Science, vol. 13, p. 467, 1973, 30 mg/kg of test compounds were orally administered to groups of six female dd-strain mice and 30 minutes later the survival time, i.e. time required until respiratory failure, was measured under the hypoxia condition of 200 mmHg. The extention of the survival time against the control group was expressed as a percentage and the results are summarized in Table 3.

[2] = tested on: gastric secretion; experiment: Effect on gastric secretion (Shay pylorus ligation); format: in vivo; details: 10 mg/kg s.c., pylorus-ligated female Wistar rats, 4 hours
Description: The experiment was performed according to the method of Shay et al described in Gastroenterology, vol 5, p. 43, 1945.
Groups of ten female Wistar rats, weighing 130.200 g, were deprived of food and the abdomen of each rat was incised and the pylorus ligated under ether anesthesia. Immediately after pylorus ligation, 10 mg/kg of test compounds were subcutaneously administered. After 4 hours, the gastric contents were collected and centrifuged. The supernatant was regarded as volume of gastric secretion. The acidity of gastric juice was determined by titrating the gastric juice with 0.1N sodium hydroxide to pH 7.0 with an automatic titrator (Kyoto Denshi Kogyo K.K., AT-107).
The percent inhibitions (%) of the compounds of the present invention on volume of gastric juice secretion and acidity of gastric juice were calculated and the results are summarized in Table 1.

[3] = Toxicity; format: in vivo, ddY-mice
Description: Compounds of Examples 5, 11, 14, 15 and 55 were orally or intraperitoneally administered to groups of five ddY-mice.

[4] = tested on: gastric mucous membrane; experiment: Effect on injury of gastric mucous membrane (ethanol); format: in vivo, male Wistar rats; details: 30 min before ethanol 5 ml/kg p.o.
Description: Male Wistar rats, weighing 170-250 g, were deprived of food for 48 hours and water for 24 hours and then test compounds were intraperitoneally administered. Thirty minutes after administration of test compounds, 5 ml/kg of ethanol was orally administered. One hour later the stomach of each rat was excised and inflated with 8 ml of a 3% formalin solution. The stomach was incised along the greater curvature and the area (mm^2) of gastric injury were measured and summed. The square root of the sum was used as an ulcer index.

[5] = tested on: tonic seizure; experiment: Antianxiety effect (bicuculline-induced tonic seizure); format: in vivo; details: Mus musculus, po, 1 hour before bicuculline 0.6 mg/kg i.v., male ddY-mice; read-out: ED50 (prevention of tonic seizure in half of the animals)
Description: Test compounds were orally administered to groups of seven male ddY-mice and an hour later 0.6 mg/kg of bicuculline was intraveneously administered. […] The ED50 (mg/kg) was calculated by the probit method as the dose which is sufficient to prevent tonic seizure in half of the animals.

SMILES: CC(=O)NCc1ccc(-c2csc(N)n2)s1.Cl [Example 1, 2-amino-4-(5-acetylaminomethyl-2-thienyl)thiazole hydrochloride]
- Extention of the survival time (percentage, against control group) [1]: 280%

SMILES: CCN(CC)Cc1ccc(-c2csc(N)n2)s1.O=C(O)/C=C/C(=O)O [Example 4, 2-Amino-4-(5-diethylaminomethyl-2-thienyl)thiazole fumarate]
- Percent inhibition of acidity of gastric juice [2]: 38%
- Percent inhibition of volume of gastric juice secretion [2]: 65%

SMILES: Nc1nc(-c2ccc(CN3CCOCC3)s2)cs1 [Example 5, 2-Amino-4-(5-morpholinomethyl-2-thienyl)thiazole]
- Percent inhibition of acidity of gastric juice [2]: 22%
- Percent inhibition of volume of gastric juice secretion [2]: 66%
- Extention of the survival time (percentage, against control group) [1]: 367%
- survival of mice, intraperitoneal ([3]; in vivo): All mice survived
- survival of mice, oral ([3]; in vivo): All mice survived

SMILES: Nc1nc(-c2ccc(CN3CCCCC3)s2)cs1.O=C(O)/C=C/C(=O)O [Example 6, 2-Amino-4-(5-piperidinomethyl-2-thienyl)thiazole fumarate]
- Percent inhibition (ulcer index, against control group) ([4]; 10 mg/kg i.p.): 59%
- Extention of the survival time (percentage, against control group) [1]: 278%

SMILES: CC(C)NCc1ccc(-c2csc(N)n2)s1.O=C(O)/C=C\C(=O)O [Example 7, 2-Amino-4-(5-isopropylaminomethyl-2-thienyl)thiazole maleate]
- Percent inhibition of acidity of gastric juice [2]: 31%
- Percent inhibition of volume of gastric juice secretion [2]: 80%
- Percent inhibition (ulcer index, against control group) ([4]; 3 mg/kg i.p.): 51%
- Percent inhibition (ulcer index, against control group) ([4]; 10 mg/kg i.p.): 63%

SMILES: CC(=O)OCC(=O)NCc1ccc(-c2csc(N)n2)s1 [Example 11, 2-amino-4-(5-acetoxyacetylaminomethyl-2-thienyl) thiazole]
- Percent inhibition (ulcer index, against control group) ([4]; 1 mg/kg i.p.): 73%
- survival of mice, intraperitoneal ([3]; in vivo): All mice survived
- survival of mice, oral ([3]; in vivo): All mice survived

SMILES: CCOCC(=O)NCc1ccc(-c2csc(N)n2)s1 [Example 14, 2-Amino-4-(5-ethoxyacetylaminomethyl-2-thienyl)thiazole]
- Percent inhibition of acidity of gastric juice [2]: 39%
- Percent inhibition of volume of gastric juice secretion [2]: 53%
- Percent inhibition (ulcer index, against control group) ([4]; 3 mg/kg i.p.): 35%
- Extention of the survival time (percentage, against control group) [1]: 204%
- survival of mice, intraperitoneal ([3]; in vivo): All mice survived
- survival of mice, oral ([3]; in vivo): All mice survived

SMILES: Nc1nc(-c2ccc(CNC(=O)COc3ccccc3)s2)cs1.O=C(O)/C=C\C(=O)O [Example 15, 2-Amino-4-(5-phenoxyacetylaminomethyl-2-thienyl)thiazole maleate]
- survival of mice, intraperitoneal ([3]; 300 mg/kg intraperitoneal, five days after administration, ddY-mice): All mice survived
- survival of mice, oral ([3]; 1000 mg/kg oral, five days after administration, ddY-mice): All mice survived

SMILES: Nc1nc(-c2ccc(CCN3CCN(c4cccc(C(F)(F)F)c4)CC3)s2)cs1 [Example 47, 2-Amino-4-[5-(2-(4-(3-trifluoromethylphenyl)-1-piperazinyl)ethyl)-2-thienyl]thiazole]
- ED50 [5]: 21 mg/kg

SMILES: CC(Oc1ccccc1)C(=O)NCc1ccc(-c2csc(N)n2)s1.O=C(O)/C=C\C(=O)O (stereo not drawn) [Example 50, 2-Amino-4-[5-(2-phenoxypropionylaminomethyl)-2-thienyl]thiazole maleate]
- Percent inhibition of acidity of gastric juice [2]: 37%
- Percent inhibition of volume of gastric juice secretion [2]: 64%

SMILES: c1ccc(Nc2nc(-c3ccc(CN4CCCCC4)s3)cs2)cc1 [Example 53, 2-Phenylamino-4-(5-piperidinomethyl-2-thienyl)thiazole]
- ED50 [5]: 50 to 100 mg/kg

SMILES: Nc1nc(-c2ccc(CCN3CCCCC3)s2)cs1.O=C(O)/C=C\C(=O)O [Example 54, 2-Amino-4-[5-(2-piperidinoethyl)-2-thienyl]thiazole maleate]
- ED50 [5]: 50 to 100 mg/kg

SMILES: Nc1nc(-c2ccc(CCN3CCN(c4cccc(Cl)c4)CC3)s2)cs1 [Example 55, 2-Amino-4-[5-(2-(4-(3-chlorophenyl)-1-piperazinyl)ethyl)-2-thienyl]thiazolehydrochloride]
- ED50 [5]: 50 mg/kg
- survival of mice, intraperitoneal ([3]; in vivo): All mice survived
- survival of mice, oral ([3]; in vivo): All mice survived

SMILES: Nc1nc(-c2ccc(CCN3CCOCC3)s2)cs1 [Example 65, 2Amino-4-[5-(2-morpholinoethyl)-2-thienyl]thiazole]
- Percent inhibition of acidity of gastric juice [2]: 39%
- Percent inhibition of volume of gastric juice secretion [2]: 61%
- Extention of the survival time (percentage, against control group) [1]: 158%
